# In ChEMBL document CHEMBL5252609, “Design, synthesis, and antitumor evaluation of morpholine substituted bisnaphthalimides as DNA targeting agents” (Bioorg Med Chem Lett, 2023):
# Active and inactive are the calls of the source. No cut-off for these calls is given here.
# Columns and labels:
# T-24 = test: Antiproliferative activity against human T24 cells assessed as cell growth inhibition by MTT assay; assay type: functional, cell-based
# CNE-2 = test: Antiproliferative activity against human CNE-2 cells assessed as cell growth inhibition by MTT assay; assay type: functional, cell-based
# A2780 = test: Antiproliferative activity against human A2780 cells assessed as cell growth inhibition by MTT assay; assay type: functional, cell-based
# MGC-803 [1] = test: Antiproliferative activity against human MGC-803 cells assessed as cell growth inhibition by MTT assay; assay type: functional, cell-based
# Homo sapiens [2] = species on record: Homo sapiens; test: Binding affinity to pBR322 DNA (unknown origin) assessed as DNA intercalation at 20 to 100 uM by electrophoresis assay; details: dose 20-100 µM
# [3] = molecular target: T1, DNA topoisomerase 1 (Homo sapiens) (UniProt P11387); test: Inhibition of human DNA topoisomerase 1 assessed as reduction in pBR322 DNA relaxation upto 100 uM by gel electrophoresis method
# T1 sequence (whole entry): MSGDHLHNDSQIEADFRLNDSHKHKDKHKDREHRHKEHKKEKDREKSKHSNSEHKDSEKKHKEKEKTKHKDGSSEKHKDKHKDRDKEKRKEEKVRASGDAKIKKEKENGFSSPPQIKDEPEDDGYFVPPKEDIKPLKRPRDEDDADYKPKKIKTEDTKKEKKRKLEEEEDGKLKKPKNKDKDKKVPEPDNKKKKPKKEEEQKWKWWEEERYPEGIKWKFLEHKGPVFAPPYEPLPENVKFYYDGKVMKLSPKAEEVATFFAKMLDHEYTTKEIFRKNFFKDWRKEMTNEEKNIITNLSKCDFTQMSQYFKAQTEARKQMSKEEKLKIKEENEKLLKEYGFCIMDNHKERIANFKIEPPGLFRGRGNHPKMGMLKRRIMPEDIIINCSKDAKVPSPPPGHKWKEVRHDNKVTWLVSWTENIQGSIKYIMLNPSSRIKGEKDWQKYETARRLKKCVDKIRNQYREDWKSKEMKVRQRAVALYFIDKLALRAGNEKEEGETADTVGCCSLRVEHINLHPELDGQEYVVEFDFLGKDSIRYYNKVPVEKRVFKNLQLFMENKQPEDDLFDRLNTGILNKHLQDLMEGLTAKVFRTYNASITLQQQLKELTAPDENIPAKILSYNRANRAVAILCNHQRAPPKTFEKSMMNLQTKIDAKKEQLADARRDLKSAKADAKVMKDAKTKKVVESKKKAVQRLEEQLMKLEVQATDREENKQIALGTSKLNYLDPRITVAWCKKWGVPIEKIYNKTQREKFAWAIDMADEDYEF
# Homo sapiens [4] = species on record: Homo sapiens; test: Binding affinity to pBR322 DNA (unknown origin) assessed as induced retardation of DNA migration at 20 to 100 uM by gel electrophoresis assay; details: dose 20-100 µM
# MGC-803 [5] = test: Toxicity in nude mouse xenografted with human MGC-803 cells assessed as morphological changes in liver at 8 mg/kg, ip administrated every other day for 21 days; assay type: functional, organism-based; details: time 21.0 day
# MGC-803 [6] = test: Antitumor activity against human MGC-803 cells xenografted in nude mouse assessed as reduction in tumor volume growth rate at 4 mg/kg, ip administrated every other day for 21 days relative to control; assay type: functional; parameters: scale not given: the % may be the effect or the level left; details: time 21 day
# MGC-803 [7] = test: Antitumor activity against human MGC-803 cells xenografted in nude mouse assessed as reduction in tumor weight at 4 mg/kg, ip administrated every other day for 21 days relative to control; assay type: functional; parameters: scale not given: the % may be the effect or the level left; details: time 21 day
Compound,IC50 (T-24) [µM],IC50 (CNE-2) [µM],IC50 (A2780) [µM],IC50 (MGC-803 [1]) [µM],Activity (Homo sapiens [2]),inhibition [3],Activity (Homo sapiens [4]),Activity (MGC-803 [5]),Activity (MGC-803 [6]) [%],Activity (MGC-803 [7]) [%]
O=C1c2cccc3c(N4CCOCC4)c([N+](=O)[O-])cc(c23)C(=O)N1CCc1ccc2c(c1)OCO2,23.6,> 50,28.4,23.1,–,–,–,–,–,–
CN(C)CCN1C(=O)c2cccc3cc(N)cc(c23)C1=O [AMONAFIDE],7.23,8.65,11.7,5.25,–,–,–,–,–,–
CC(C)(C)OC(=O)N1CCN(c2c([N+](=O)[O-])cc3c4c(cccc24)C(=O)N(CCNCCN2C(=O)c4cccc5c(N6CCN(C(=O)OC(C)(C)C)CC6)c([N+](=O)[O-])cc(c45)C2=O)C3=O)CC1,> 50,> 50,> 50,> 50,–,–,–,–,–,–
O=C1c2cccc3c(N4CCOCC4)c([N+](=O)[O-])cc(c23)C(=O)N1CCO,9.34,16.4,22.8,11.8,–,–,–,–,–,–
O=C1c2cccc3cc([N+](=O)[O-])cc(c23)C(=O)N1CCNCCN1C(=O)c2cccc3cc([N+](=O)[O-])cc(c23)C1=O,3.45,4.51,2.79,14.6,inactive,inactive,inactive,–,–,–
CN(C)CCN1C(=O)c2cccc3cc([N+](=O)[O-])cc(c23)C1=O [MITONAFIDE],3.25,3.42,5.22,3.32,–,–,–,Toxic,54.2,34.2
O=C1c2cccc3c(N4CCCCC4)c([N+](=O)[O-])cc(c23)C(=O)N1CCNCCN1C(=O)c2cccc3c(N4CCCCC4)c([N+](=O)[O-])cc(c23)C1=O,> 50,> 50,> 50,> 50,–,–,–,–,–,–
CN1CCN(c2c([N+](=O)[O-])cc3c4c(cccc24)C(=O)N(CCNCCN2C(=O)c4cccc5c(N6CCN(C)CC6)c([N+](=O)[O-])cc(c45)C2=O)C3=O)CC1,0.65,0.34,0.42,2.05,Active,inactive,Active,–,–,–
O=C1c2cccc3c(N4CCC(N5CCCCC5)CC4)c([N+](=O)[O-])cc(c23)C(=O)N1CCNCCN1C(=O)c2cccc3c(N4CCC(N5CCCCC5)CC4)c([N+](=O)[O-])cc(c23)C1=O,14.8,9.25,> 50,> 50,–,–,–,–,–,–
